# From paper PMC9491098, “Discovery of novel drug-like antitubercular hits targeting the MEP pathway enzyme DXPS by strategic application of ligand-based virtual screening” (Chemical Science, 2022)
# “And” between values parts separate entries of the source, which are not always exact repeats. Equal values may be shown once. Read-outs that look alike come from different tables or passages of the source.
# Tests used:
# MtDXPS [1] = molecular target: T1, MtDXPS (Mycobacterium tuberculosis, UniProt P9WNS3); assay: biochemical
# T1 sequence (P9WNS3 whole entry, looked up): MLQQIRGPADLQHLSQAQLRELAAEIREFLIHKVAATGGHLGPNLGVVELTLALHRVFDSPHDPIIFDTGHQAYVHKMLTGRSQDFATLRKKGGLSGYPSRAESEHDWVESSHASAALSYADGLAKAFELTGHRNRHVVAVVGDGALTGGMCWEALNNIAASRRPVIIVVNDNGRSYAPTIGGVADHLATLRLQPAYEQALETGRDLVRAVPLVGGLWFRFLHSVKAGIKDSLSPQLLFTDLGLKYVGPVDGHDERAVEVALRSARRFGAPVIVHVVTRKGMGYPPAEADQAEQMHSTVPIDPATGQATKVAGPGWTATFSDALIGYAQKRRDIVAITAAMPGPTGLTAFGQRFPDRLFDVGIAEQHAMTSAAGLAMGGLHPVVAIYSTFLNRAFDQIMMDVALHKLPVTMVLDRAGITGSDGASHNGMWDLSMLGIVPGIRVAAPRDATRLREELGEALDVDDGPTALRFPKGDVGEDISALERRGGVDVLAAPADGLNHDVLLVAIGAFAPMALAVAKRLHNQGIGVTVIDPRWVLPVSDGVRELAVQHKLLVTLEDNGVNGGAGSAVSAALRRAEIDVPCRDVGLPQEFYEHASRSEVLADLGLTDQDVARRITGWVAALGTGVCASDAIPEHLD
# DrDXPS (WT) [2] = molecular target: T2, DrDXPS (WT) (Deinococcus radiodurans, UniProt Q9RUB5); settings: pseudo-inhibitors; cited from earlier work
# T2 sequence (Q9RUB5 whole entry, looked up): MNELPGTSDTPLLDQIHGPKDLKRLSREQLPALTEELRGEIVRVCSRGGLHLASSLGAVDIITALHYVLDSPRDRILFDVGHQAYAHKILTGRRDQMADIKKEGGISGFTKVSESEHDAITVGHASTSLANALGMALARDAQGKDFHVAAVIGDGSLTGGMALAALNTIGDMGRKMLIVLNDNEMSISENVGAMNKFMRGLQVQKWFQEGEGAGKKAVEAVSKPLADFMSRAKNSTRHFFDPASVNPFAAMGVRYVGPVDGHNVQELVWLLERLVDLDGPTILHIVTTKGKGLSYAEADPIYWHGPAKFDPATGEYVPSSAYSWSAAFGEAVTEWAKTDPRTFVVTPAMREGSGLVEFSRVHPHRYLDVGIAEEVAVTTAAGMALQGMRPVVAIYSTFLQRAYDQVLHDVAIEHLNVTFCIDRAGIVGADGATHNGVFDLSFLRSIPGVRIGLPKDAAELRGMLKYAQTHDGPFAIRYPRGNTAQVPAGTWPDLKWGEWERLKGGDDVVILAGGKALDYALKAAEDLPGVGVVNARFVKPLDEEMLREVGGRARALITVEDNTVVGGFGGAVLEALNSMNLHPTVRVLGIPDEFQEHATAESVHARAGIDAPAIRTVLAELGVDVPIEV
# DrDXPS (WT) [3] = molecular target: T2, DrDXPS (WT); assay: biochemical; format: biochemical; settings: read-out: Inhibition % at 100 μM, Fig. 5E, DrDXPS (WT)
# MtDXPS [4] = molecular target: T1, MtDXPS; assay: biochemical; settings: for inhibitory activity against MtDXPS, SAR statement: SAR discussion of Table 1A–C
# MtDXPS [5] = molecular target: T1, MtDXPS; assay: microscale thermophoresis (MST) dissociation constant; format: binding; settings: Fig. 4F
# Experimental: ETB + A <===> ETAB : Ka2 (Ka2 is the dissociation constant of pyruvate with […]
# ETA + B <===> ETAB : Kb2 (Kb2 is the dissociation constant of ThDP with DXPS) E + I <===> EI* : Ki* (Ki* is the Morrison inhibition constant of inhibitor with apoDXPS) ETAB ---> ET + P : kcat (kcat is the catalytic constant of DXPS) […]
# microscale thermophoresis (MST)
# MST measurements were performed on a Monolith NT.115 (NanoTemper
# Technologies GmbH, Germany) instrument using red-dye-NHS fluorescent labeling.
# Each purified MtDXPS sample was labeled with red-dye-NHS second generation dye, according to the supplied protocol. Measurements were performed in 100 m M Tris-HCl (pH 7.6) containing 0.05% Tween-20 and 5% DMSO in premium treated capillaries.
# The final concentration of each labeled protein in the assay was 100 n M. The inhibitors were titrated in 1:1 dilutions according to the supplier’s recommendations. All binding reactions were incubated at room temperature for 30 min before loading, and then pre-incubated for 5 min at room temperature after loading into the capillaries. Experiments were performed in duplicates, using 40% LED power, medium MST power, laser on time 20 s, and laser off time 3 s. Kds of the inhibitors were extracted from raw data at a 10–20 s on time according to the manufacturer’s instructions. A denaturation test was performed to exclude any nonspecific spectral interactions between the inhibitors […]
# The solutions were vortexed, and then the rest of the assay components was added in the following order: HEPES, pH = 8 (100 m M), bovine serum albumin (1 mg/mL), cysteine (2 mM), ThDP (0.325 μM), coenzyme-A (150 μM), TCEP (300 μM), pyruvate (150 μM) and MgCl2 (1 mM). […] Porcine PDH (final concentration of 0.01 U/ mL) was then added to initiate the reactions, which were monitored spectrophotometrically by measuring the […]
# [6] = test system: E. coli strain BL21 (DE3) pQEYAEM; assay: microbe, parasite or virus in culture; format: cell-based; settings: Escherichia coli, Fig. 6A
# [7] = test system: E. coli strain BL21 (DE3) pET22b-H6[…]; assay: microbe, parasite or virus in culture; format: cell-based; settings: Escherichia coli, Fig. 6B
# M. tuberculosis strains = assay: MIC against multiple M. tuberculosis strains, absolute concentration method on 7H10 agar; format: cell-based; settings: Mycobacterium tuberculosis
# HepG2 = assay: toxicity against human cell lines; format: cell-based; settings: HepG2, 48 h, read-out: Toxicity Human cell lines EC50 (μM) HepG2
# HEK293 = assay: toxicity against human cell lines; format: cell-based; settings: HEK293, 48 h, read-out: Toxicity Human cell lines EC50 (μM) HEK293
# A549 = assay: toxicity against human cell lines; format: cell-based; settings: A549, 48 h, read-out: Toxicity Human cell lines EC50 (μM) A549
# E. coli TolC = assay: microbe, parasite or virus in culture; format: cell-based; settings: Escherichia coli
# MtDXPS [8] = molecular target: T1, MtDXPS
# [9] = metabolic stability in human liver S9 fraction; settings: pooled liver S9 fraction
# Experimental: For vitro assessment of metabolic stability, 10 µL of each compound (10 µM) was
# incubated with human pooled liver S9-fraction (1 mg/mL, Corning, Corning, NY, USA)
# in a master mix containing 2 mM NADP, 10 mM glucose-6-phosphate, 10 U/mL
# glucose-6-phosphate dehydrogenase, 1 mM UDPGA, 0.1 mM PAPS, 10 mM MgCl2.
# acetonitrile containing diphenhydramine as internal standard at 4 °C. The supernatant
# was used for LC-MS analysis and half life time t1/2 was calculated from decreasing
# concentrations/peak areas.
# LC conditions: samples were analyzed with an Ultimate 3000 HPLC (Thermo Fisher,
# Waltham, MA, USA) coupled to a TSQ Quantum Access Max triple quadrupole mass
# spectrometer (Thermo Fisher, Waltham, MA, USA) in SRM mode. Analysis was
# performed on a Nucleodur C18 Pyramid column (3 µm, 2x150 mm, Macherey-Nagel,
# Düren, Germany) with a flow of 0.6 mL/min and a water (0.1% formic acid) and
# acetonitrile (0.1% formic acid) eluent system. Gradient as follows: 10% acetonitrile for
# 1 min, 10–90% acetonitrile over 0.7 min, 90% acetonitrile for 1.8 min, equilibration at
# 10% acetonitrile for 1 min.
# MS conditions: calibration of mass spectrometer parameters was performed
# individually for each compound:
# mCherry-Mtb H37Rv = format: cell-based, Mycobacterium tuberculosis
# [10] = K i* (μM), Table 1A, indole derivatives, MtDXPS
# [11] = Table 1A, indole derivatives, MtDXPS, read-out: K i*
# [12] = Table 1B, oxime derivatives, MtDXPS, read-out: K i*
# [13] = Table S3, third round of LBVS, MtDXPS, read-out: IC50
# [14] = Table 1C, aminothiazole derivatives, MtDXPS, read-out: K i*
# [15] = Table S2, second round of LBVS, MtDXPS, read-out: IC50
structure (smiles),measurement,setting,value
"COc1cncc(Cn2ccnc2)c1 [Compound 1, reference compound]",IC50,MtDXPS [1],> 2000 µM
same,inhibition of DrDXPS,DrDXPS (WT) [2],weak inhibitors
"OCc1cc(CO)n(CCc2c[nH]cn2)n1 [Compound 2, reference compound]",IC50,MtDXPS [1],> 2000 µM
same,inhibition of DrDXPS,DrDXPS (WT) [2],weak inhibitors
OCc1cn(Cc2ccc(Cl)c(Cl)c2)c2ccccc12 [Compound 7],IC50,MtDXPS [1]; IC50 (μM),34 ± 4 µM
same,IC50,MtDXPS [1]; IC50 against MtDXPS,34 µM and 82 µM
same,IC50,MtDXPS [1]; IC50 against MtDXPS (MOI study),12 µM and 34 µM and 33 µM and 59 µM
same,mode of inhibition on MtDXPS,"MtDXPS [1]; MOI study, comparison of IC50 under varied [ThDP], [PYR], [D-GAP]","competitive with ThDP and D-GAP, but non-competitive with PYR"
same,equilibration time (slow-binding),"MtDXPS [1]; time-dependent progress curves, Fig. 4A, inhibitor 100 µM",~100 s
same,inhibition at 100 µM,"DrDXPS (WT) [3]; [ThDP] 0.1 μM (1.6x Km), [PYR] 0.5 mM (2.4x), [D-GAP] […] (1.5x)",63 ± 4%
same,inhibition at 100 µM,"DrDXPS (WT) [3]; [ThDP] 0.1 μM (1.6x Km), [PYR] […] (1.2x), [D-GAP] 0.5 mM (2.9x)",51 ± 3%
same,inhibition at 100 µM,"DrDXPS (WT) [3]; [ThDP] 0.1 μM (1.6x Km), [PYR] […] (1.2x), [D-GAP] […] (1.5x)",61 ± 5%
same,inhibition at 100 µM,"DrDXPS (WT) [3]; [ThDP] 0.2 μM (3.2x Km), [PYR] […] (1.2x), [D-GAP] […] (1.5x)",48 ± 4%
same,Ki,MtDXPS [4]; [10],1.3 ± 0.2 µM
same,Ki,"MtDXPS [4]; Morrison constant Ki* against MtDXPS, two-step tight-binding Morrison model, Dynafit, text and Fig. 4C–E",1.29 µM
same,Kd,MtDXPS [5],1.37 µM
same,MIC,[6]; [IPTG] 0 mM,13 ± 1 µM
same,MIC,[6]; [IPTG] 0.5 mM (E. coli IspC overexpression),10 ± 2 µM
same,MIC,[7]; [IPTG] 0 mM,10 ± 3 µM
same,MIC,[7]; [IPTG] 0.5 mM (MtDXPS overexpression),14 ± 2 µM
same,MIC,M. tuberculosis strains; read-out: Antitubercular activity Strain & MIC (μM) A,10 µM
same,MIC,M. tuberculosis strains; read-out: Antitubercular activity Strain & MIC (μM) B,10 µM
same,MIC,M. tuberculosis strains; read-out: Antitubercular activity Strain & MIC (μM) C,5 µM
same,MIC,M. tuberculosis strains; read-out: Antitubercular activity Strain & MIC (μM) D,5 to 10 µM
same,MIC,M. tuberculosis strains; read-out: Antitubercular activity Strain & MIC (μM) E,5 to 10 µM
same,MIC,M. tuberculosis strains; read-out: Antitubercular activity Strain & MIC (μM) F,5 to 10 µM
same,EC50,HepG2,0.8 ± 0.2 µM
same,EC50,HEK293,16 ± 7 µM
same,EC50,A549,~50 µM
same,MIC,E. coli TolC,22 ± 1 µM
same,hit validation (false-positive check),MtDXPS [8],true inhibitors
same,half-life at 10 µM,[9],6 ± 2 min
O=Cc1cn(Cc2ccc(Cl)c(Cl)c2)c2ccccc12 [Compound 13],Ki,MtDXPS [4]; [10],> 10 µM
COCc1cn(Cc2ccc(Cl)c(Cl)c2)c2ccccc12 [Compound 14],Ki,MtDXPS [4]; [11],> 5 µM
OCc1cn(Cc2cccc(Cl)c2)c2ccccc12 [Compound 15],Ki,MtDXPS [4]; [11],> 10 µM
OCc1cn(Cc2ccc(Cl)cc2)c2ccccc12 [Compound 16],Ki,MtDXPS [4]; [11],5.5 ± 0.6 µM
OCc1cn(Cc2ccc(Cl)c(Cl)c2)c2ccc(F)cc12 [Compound 17],"inhibitory activity against MtDXPS, SAR statement",MtDXPS [4],more active than their parent molecules
same,Ki,MtDXPS [4]; [11],0.4 ± 0.06 µM
same,activity against M. tuberculosis strains,mCherry-Mtb H37Rv,no activity
same,EC50,HepG2,> 50 µM
same,EC50,HEK293,> 50 µM
same,EC50,A549,> 50 µM
same,half-life at 10 µM,[9],27 ± 10 min
N#Cc1ccc2c(CO)cn(Cc3ccc(Cl)c(Cl)c3)c2c1 [Compound 18],Ki,MtDXPS [4]; [11],1.7 ± 0.3 µM
COc1cccc2c(CO)cn(Cc3ccc(Cl)c(Cl)c3)c12 [Compound 19],Ki,MtDXPS [4]; [11],1.4 ± 0.3 µM
CO/N=C(\Cc1ccc(Cl)cc1)c1ccc(O)cc1O [Compound 20],Ki,MtDXPS [4]; [12],> 10 µM
N/N=C(\Cc1ccc(Cl)cc1)c1ccc(O)cc1O [Compound 21],"inhibitory activity against MtDXPS, SAR statement",MtDXPS [4],activity is partially retained
same,Ki,MtDXPS [4]; [12],0.4 ± 0.05 µM
COc1ccc(C/C(=N\O)c2ccc(O)cc2O)cc1 [Compound 22],Ki,MtDXPS [4]; [12],> 10 µM
COc1ccc(/C(Cc2ccc(Cl)cc2)=N/O)c(O)c1 [Compound 24],Ki,MtDXPS [4]; [12],0.5 ± 0.1 µM
Cc1nc(N)sc1-c1csc(Nc2ccccc2)n1 [Compound 26],IC50,MtDXPS [1]; [13],> 120 µM
same,Ki,MtDXPS [4]; [14],> 10 µM
Cc1nc(N)sc1-c1csc(Nc2ccccc2C(F)(F)F)n1 [Compound 27],Ki,MtDXPS [4]; [14],0.3 ± 0.02 µM
Cc1nc(N)sc1-c1csc(Nc2cccc(C(F)(F)F)c2)n1 [Compound 28],Ki,MtDXPS [4]; [14],0.4 ± 0.06 µM
Oc1ccc(-c2csc(Nc3cccc(C(F)(F)F)c3)n2)c(O)c1 [Compound 29],Ki,MtDXPS [4]; [14],0.5 ± 0.04 µM
Cc1nc(N)sc1-c1csc(Nc2ccc(Cl)cn2)n1 [Compound 30],Ki,MtDXPS [4]; [14],0.3 ± 0.1 µM
Cc1nc(C)c(-c2csc(Nc3ccc(Cl)cn3)n2)s1 [Compound 31],IC50,MtDXPS [1]; [13],> 500 µM
same,Ki,MtDXPS [4]; [14],> 10 µM
Cc1sc(-n2c(C)cc(/C=N/O)c2C)c(C(=O)O)c1C [Compound 118],IC50,MtDXPS [1]; [15],> 800 µM
CC(C)(C)C(O)/C(=N/O)n1cncn1 (stereo not shown) [Compound 120],IC50,MtDXPS [1]; [15],> 200 µM
O/N=C/c1cccn1-c1ccc(Br)cc1 [Compound 121],IC50,MtDXPS [1]; [15],> 200 µM
CCCOc1ccc(C2N=C(N)Nc3nc4ccccc4n32)cc1 (stereo not shown) [Compound 122],IC50,MtDXPS [1]; [15],> 50 µM
NC1=NC(c2ccccc2F)n2c(nc3ccccc32)N1 (stereo not shown) [Compound 123],IC50,MtDXPS [1]; [15],> 120 µM
CCc1ccc(C2N=C(N)Nc3nc4ccccc4n32)cc1 (stereo not shown) [Compound 124],IC50,MtDXPS [1]; [15],> 30 µM
CN(C)c1ccc(C2NC(N)=Nc3nc4ccccc4n32)cc1 (stereo not shown) [Compound 125],IC50,MtDXPS [1]; [15],> 200 µM
NC1=NC(c2ccc(O)c(O)c2)n2c(nc3ccccc32)N1 (stereo not shown) [Compound 126],IC50,MtDXPS [1]; [15],> 160 µM
FC(F)(F)c1ccc(Nc2nc(-c3ccncc3)cs2)cc1 [Compound 132],IC50,MtDXPS [1]; [13],> 60 µM
Cc1nc(NC(=O)c2ccccc2)sc1-c1csc(Nc2ccc(C(F)(F)F)cc2)n1 [Compound 133],IC50,MtDXPS [1]; [13],> 120 µM
Cc1ccc(-c2csc(Nc3cccc(Cl)c3C)n2)cc1 [Compound 134],IC50,MtDXPS [1]; [13],> 16 µM
Cc1c(Cl)cccc1Nc1nc(-c2cccnc2)cs1 [Compound 135],IC50,MtDXPS [1]; [13],> 200 µM
